Measurements taken from publication PMC9403717, “Ruthenium complexes show potent inhibition of AKR1C1, AKR1C2, and AKR1C3 enzymes and anti-proliferative action against chemoresistant ovarian cancer cell line” (Frontiers in Pharmacology, 2022).
Residue numbers refer to the chain shown, from its start. Like-named read-outs stand apart in the source and are kept apart here.

Columns and labels:
Assay type in all cases: biochemical
[1] = biological target: T1, AKR1C2 (Homo sapiens, UniProt P52895); experiment: Inhibition of recombinant AKR1C2, oxidation of 1-acenaphthenol, progress-curve analysis; conditions: for k+2: irreversible binding of second inhibitor molecule to E-NAD-I; for k+3: irreversible binding of second inhibitor molecule to E-NADH-I; for fold less efficient inhibition of AKR1C2 compared to AKR1C1: from K3 values
T1 construct: made in house
T1 sequence (P52895 1-323): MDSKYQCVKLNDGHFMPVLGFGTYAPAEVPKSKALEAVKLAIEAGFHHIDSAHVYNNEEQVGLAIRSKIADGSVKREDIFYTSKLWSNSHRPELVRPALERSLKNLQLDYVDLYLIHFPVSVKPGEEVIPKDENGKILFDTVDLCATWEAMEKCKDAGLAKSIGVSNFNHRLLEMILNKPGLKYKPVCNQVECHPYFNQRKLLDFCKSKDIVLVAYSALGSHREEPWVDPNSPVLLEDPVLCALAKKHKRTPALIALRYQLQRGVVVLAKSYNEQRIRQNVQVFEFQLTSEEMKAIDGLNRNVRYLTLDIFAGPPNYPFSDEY
Procedure: (§1) To investigate the effect of ten selected ruthenium compounds, we measured their effect on the time course of oxidation of the artificial substrate 1-acenaphtenol by recombinant enzymes AKR1C1–3. The recombinant enzymes AKR1C1–AKR1C3 were prepared as described previously ([Brozic et al., 2006]). Since the artificial substrate is racemic, the oxidation follows a double exponential pattern as described previously ([Traven et al., 2015]). The in vitro catalytic activity of AKR1C1–3 enzymes was determined spectrophotometrically by monitoring the increase in NADH absorbance at 340 nm (ε(λ340) = 6220 M^−1cm^−1) in the presence of the substrate 1-acenaphthenol. Enzymatic reactions (300 µL) were performed in 100 mm potassium phosphate buffer (pH 9.0), 0.005% (v/v) TritonX-114, 5% (v/v) DMSO, containing 2.3 mm NAD^+ and 1-acenaphthenol at final concentrations of 90, 180, and 250 µM for AKR1C1, AKR1C2, and AKR1C3, respectively. A total of 5 µL of a tested compound in DMSO was added to the reaction mixture. The final concentrations of the tested compounds ranged from 1 to 200 μM, depending on the extent of inhibition (Supplementary Data). The reaction was started by adding 15 µL of AKR1C1, AKR1C2, or AKR1C3 dissolved in 1x PBS (pH 7.3) at final concentrations of 0.11, 0.16, and 1.5 µM, respectively. AKR1C1–3 activity was measured at 37°C for 3 h without shaking using a PowerWave XS microplate reader (Biotek; Winooski, VT, United States). Measurements at seven different concentrations were performed in duplicates or triplicates (Supplementary Figures S2). To mechanistically explain all the obtained progress curves for each ruthenium complex on each enzyme by a common reaction scheme, we extended the originally proposed scheme so that the interaction of the ruthenium complex with apo- and holoenzyme was allowed to be rapid and followed by a slow irreversible association of a second ruthenium complex molecule. However, the affinity of the Ru complexes for the apoenzymes was much lower so this part was excluded from the proposed kinetic model for clarity (Figure 4).
(§2) FIGURE 4 Reaction scheme for the oxidation of 1-acenaphtenol by AKR1C1-3 and its inhibition by ruthenium compounds. E represents apoenzyme, E-NAD and E-NADH represent holoenzyme with bound NAD^+ and NADH, respectively. A and B are enantiomers of substrate 1-acenaphtenol. Symbols which include I (ruthenium compound) represent holoenzyme in complex with one or two inhibitor molecules. KNAD, KNADH, and K2-3 are equilibrium constants and k+2–3 are second-order association rate constants for the binding of the second inhibitor molecule to the enzyme. The progress curves for each enzyme in the presence of ruthenium complexes were analyzed by the WEB server ENZO (https://enzo.cmm.ki.si/) designed exactly for such purposes ([Bevc et al., 2011]).

[2] = biological target: T2, AKR1C3 (Homo sapiens, UniProt P42330); experiment: Inhibition of recombinant AKR1C3, oxidation of 1-acenaphthenol, progress-curve analysis; conditions: for k+2 / k+3 / Ki / inhibitory effect (in words) / irreversible inhibition (in words): AKR1C3; for k+2: irreversible binding of second inhibitor molecule to E-NAD-I; for k+3: irreversible binding of second inhibitor molecule to E-NADH-I; for fold less efficient inhibition of AKR1C3 compared to AKR1C1: from K3 values
T2 construct: made in house
T2 sequence (P42330 1-323): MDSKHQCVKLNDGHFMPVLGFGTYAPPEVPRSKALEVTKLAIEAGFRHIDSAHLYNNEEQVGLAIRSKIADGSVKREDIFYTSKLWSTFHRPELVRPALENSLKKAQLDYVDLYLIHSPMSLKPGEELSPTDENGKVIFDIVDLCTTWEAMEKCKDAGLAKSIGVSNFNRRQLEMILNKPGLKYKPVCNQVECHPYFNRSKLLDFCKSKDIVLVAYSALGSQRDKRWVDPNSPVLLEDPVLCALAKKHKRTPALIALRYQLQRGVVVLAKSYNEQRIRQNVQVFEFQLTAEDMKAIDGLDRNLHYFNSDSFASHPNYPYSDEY
Procedure: as §1, §2

[3] = biological target: T3, AKR1C1 (Homo sapiens, UniProt Q04828); experiment: Inhibition of recombinant AKR1C1, oxidation of 1-acenaphthenol, progress-curve analysis; conditions: for k+2: irreversible binding of second inhibitor molecule to E-NAD-I; for k+3: irreversible binding of second inhibitor molecule to E-NADH-I
T3 construct: made in house
T3 sequence (Q04828 1-323): T1 sequence (P52895 1-323) with V38T, H47R, V54L, S87C, M151V, H170R, L172Q
Procedure: as §1, §2

[4] = AKR1C2, reversible binding to holoenzyme E-NAD, read-out: K2
[5] = AKR1C2, reversible binding to holoenzyme E-NADH, read-out: K3
[6] = reversible binding to holoenzyme E-NAD, read-out: K2
[7] = reversible binding to holoenzyme E-NADH, read-out: K3

| Compound | k+2 ([1]; AKR1C2) [M⁻¹ s⁻¹] | k+3 ([1]; AKR1C2) [M⁻¹ s⁻¹] | Ki [1, 4] [µM] | Ki [1, 5] [µM] | fold less efficient inhibition of AKR1C2 compared to AKR1C1 [1] [fold] | k+2 [2] [M⁻¹ s⁻¹] | k+3 [2] [M⁻¹ s⁻¹] | Ki [2, 6] [µM] | Ki [2, 7] [µM] | fold less efficient inhibition of AKR1C3 compared to AKR1C1 [2] [fold] | k+2 [3] [M⁻¹ s⁻¹] | k+3 [3] [M⁻¹ s⁻¹] | Ki [3, 6] [µM] | Ki [3, 7] [µM] | inhibitory effect (in words) [2] | irreversible inhibition (in words) [2] | inhibitory effect (in words) ([1]; AKR1C2) | irreversible inhibition (in words) ([1]; AKR1C2) | inhibitory effect (in words) [3] | irreversible inhibition (in words) [3] |
| --- | --- | --- | --- | --- | --- | --- | --- | --- | --- | --- | --- | --- | --- | --- | --- | --- | --- | --- | --- | --- |
| CN(C)c1ccc(C(=CC(=O)C(F)(F)F)[O][Ru][Cl])cc1.Cc1ccc(C(C)C)cc1 [Compound 3, (η^6-p-cymene)chlorido(4,4,4-trifluoro-1-(4-(dimethylamino)phenyl)-1,3-butandionato)ruthenium(II)] | 7.4 | 55.4 | 157 | 1.12 | 26 | 10.2 | 1.2 | 179 | 0.306 | 7.1 | 31.5 | 4.3 | 107 | 0.0429 |  |  |  |  |  |  |
| C1N2CN3CN1CP(C2)C3.Cc1ccc(C(C)C)cc1.F[P-](F)(F)(F)(F)F.[O-]c1c(I)cc(Cl)c2cccnc12.[Ru+2] [Compound 8] | 929 |  | 1.6 |  |  |  |  |  |  |  |  |  | 0.35 |  |  |  |  |  |  |  |
| Cc1ccc(C(C)C)cc1.O=C(C=C([O][Ru][Cl])c1ccc(I)cc1)C(F)(F)F [Compound 1] |  | 7.7 | 305 | 0.0527 | 2.5 |  | 0.9 | 105 | 0.163 | 7.6 |  | 9.4 |  | 0.0214 |  |  |  |  |  |  |
| C1N2CN3CN1CP(C2)C3.Cc1ccc(C(C)C)cc1.F[P-](F)(F)(F)(F)F.O=C(C=C([O][Ru+])c1ccc(I)cc1)C(F)(F)F [Compound 2] | 12.6 |  | 80 |  |  | 5.3 |  | 116 |  |  | 25.9 |  | 2.8 |  |  |  |  |  |  |  |
| C1N2CN3CN1CP(C2)C3.Cc1ccc(C(C)C)cc1.F[P-](F)(F)(F)(F)F.O=[N+]([O-])c1ccc([O][Ru+])c2ncccc12 [Compound 10, (η ^6-p-cymene)(nitroxolinato)(pta)ruthenium(II) hexafluorophosphate] | 5.1 |  | 42.5 |  |  |  |  | 561 |  |  | 13.5 |  | 49.7 |  | Almost no inhibition | no irreversible inhibition |  |  |  |  |
| C1N2CN3CN1CP(C2)C3.Cc1ccc(C(C)C)cc1.F[P-](F)(F)(F)(F)F.O=C(C=C([O][Ru+])c1ccc2c(c1)OCO2)C(F)(F)F [Compound 6] | 172 |  | 8.3 |  |  | 90 |  | 92.7 |  |  | 48.8 |  | 3.1 |  |  |  |  |  |  |  |
| Cc1ccc(C(C)C)cc1.O=C(C=C([O][Ru][Cl])c1ccc2c(c1)OCO2)C(F)(F)F [Compound 5] |  | 7.3 |  | 0.0662 | 2.8 |  | 0.5 |  | 0.15 | 6.3 |  | 6.0 |  | 0.0235 |  |  |  |  |  |  |
| Cc1ccc(C(C)C)cc1.[Cl-].[O-]c1c(I)cc(Cl)c2cccnc12.[Ru+2] [Compound 7] |  | 11.1 |  | 0.0654 |  |  |  |  |  |  |  | 17.1 |  | 0.345 | Almost no inhibition |  |  |  |  |  |
| Cc1ccc(C(C)C)cc1.O=[N+]([O-])c1ccc([O][Ru][Cl])c2ncccc12 [Compound 9, (η ^6-p-Cymene) (nitroxolinato)chloridoruthenium (II)] |  |  | 191 |  |  |  |  | 439 |  |  |  |  | 227 |  | very weak inhibitory effect | virtually no irreversible inhibition | very weak inhibitory effect | virtually no irreversible inhibition | very weak inhibitory effect | virtually no irreversible inhibition |
